Here are results for 31 compounds from patent US9023865B2, “Compounds that are ERK inhibitors” (Merck Sharp & Dohme Corp., priority 2011, dated 2015).

This experiment addresses Active Human ERK2 (hERK2) (Homo sapiens (Human), UniProt P28482). The experiment in a line: Active Human ERK2 (hERK2) Activity Assay (IMAP-FP). The class given is biochemical. The method, then:
Assays Active Human ERK2 (hERK2) Activity Assay:
Activated ERK2 activity was determined in an IMAP-FP assay (Molecular Devices). […] The final reaction in each well of 25 μL consists of 0.5 nM hERK2, 900 nM unlabeled peptide, 80 nM labeled-peptide, and 30 μM ATP. Phosphorylation reactions were allowed to proceed for 60 minutes and were immediately quenched by the addition of […] IMAP detection beads (1:1000 dilutions) in IMAP binding buffer (Molecular Devices) with 24 mM NaCl. Plates were read on EnVision reader after 60 minutes binding equilibration using Fluorescence Polarization protocol (Perkin Elmer).

Setting [1] is: phosphorylated active hERK2, 30 μM ATP, average, read-out: ERK 2 Human average IC50.
Where [2] appears, read: read-out: AERK2 IC50 (Active human ERK2 Activity Assay).

Where two headings read alike, the source gives them in different places.

Active Human ERK2 (hERK2), sequence (P28482 whole entry): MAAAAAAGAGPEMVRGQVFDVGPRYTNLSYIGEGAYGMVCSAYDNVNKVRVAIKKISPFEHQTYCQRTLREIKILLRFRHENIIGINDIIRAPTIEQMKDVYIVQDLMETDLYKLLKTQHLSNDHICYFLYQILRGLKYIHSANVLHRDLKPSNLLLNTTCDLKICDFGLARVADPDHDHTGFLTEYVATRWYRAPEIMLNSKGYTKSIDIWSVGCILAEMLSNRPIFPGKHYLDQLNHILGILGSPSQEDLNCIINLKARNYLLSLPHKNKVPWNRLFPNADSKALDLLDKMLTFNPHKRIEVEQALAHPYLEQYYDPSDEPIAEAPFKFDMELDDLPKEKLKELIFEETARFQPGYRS

With `Cc1cc(-c2n[nH]c3cc(NC(=O)NCc4ccc(F)c(Cl)c4)ncc23)ccn1` [Example 56, 1-(3-chloro-4-fluorobenzyl)-3-[3-(2-methylpyridin-4-yl)-1H-pyrazolo[4,3-c]pyridin-6-yl]urea], the 50% inhibitory concentration (IC50) under setting [1] came out at 0.411 nM and the half-maximal inhibitory concentration (IC50) under setting [2] was in the range of 0.2 to 1.7 nM.

As for `C[C@@H](NC(=O)Nc1cc2[nH]nc(-c3ccnc(F)c3)c2cn1)c1ccc(Cl)cc1` [Example 57, 1-[(1R)-1-(4-chlorophenyl)ethyl]-3-[3-(2-fluoropyridin-4-yl)-1H-pyrazolo[4,3-c]pyridin-6-yl]urea], the 50% inhibitory concentration (IC50) was 1.84 nM under setting [1] and 0.2 to 1.7 nM under setting [2].

For the compound `O=C(NCc1ccc(F)c(Cl)c1)Nc1cc2[nH]nc(-c3ccnc(F)c3)c2cn1` [Example 58, 1-(3-chloro-4-fluorobenzyl)-3-[3-(2-fluoropyridin-4-yl)-1H-pyrazolo[4,3-c]pyridin-6-yl]urea], the concentration for half-maximal inhibition (IC50) was 1 nM under setting [1] and 0.2 to 1.7 nM under setting [2].

For `C[C@@H](NC(=O)Nc1cc2[nH]nc(-c3cnn(C)c3)c2cn1)c1ccc(Cl)cc1` [Example 59, 1-[(1R)-1-(4-chlorophenyl)ethyl]-3-[3-(1-methyl-1H-pyrazol-4-yl)-1H-pyrazolo[4,3-c]pyridin-6-yl]urea], the IC50 under setting [1] is 0.514 nM and the IC50 under setting [2] was 0.2 to 1.7 nM.

For `Cn1cc(-c2n[nH]c3cc(NC(=O)NCc4ccc(F)c(Cl)c4)ncc23)cn1` [Example 60, 1-(3-chloro-4-fluorobenzyl)-3-[3-(1-methyl-1H-pyrazol-4-yl)-1H-pyrazolo[4,3-c]pyridin-6-yl]urea], the IC50 is, setting by setting: under setting [1], 0.251 nM; under setting [2], 0.2 to 1.7 nM.

As to `Cc1cc(-c2n[nH]c3cc(NC(=O)Nc4ccccc4)ncc23)ccn1` [Example 61, 1-[3-(2-methylpyridin-4-yl)-1H-pyrazolo[4,3-c]pyridin-6-yl]-3-phenylurea], under setting [1], the IC50 was 127 nM.

`C[C@@H](NC(=O)Nc1cc2[nH]nc(-c3ccc4nn(C)cc4c3)c2cn1)c1cccc(Cl)c1` [Example 62, 1-[(1R)-1-(3-chlorophenyl)ethyl]-3-[3-(2-methyl-2H-indazol-5-yl)-1H-pyrazolo[4,3-c]pyridin-6-yl]urea]: the 50% inhibitory concentration (IC50) by setting is: under setting [1], 0.672 nM; under setting [2], 0.2 to 1.7 nM.

For the compound `C[C@@H](NC(=O)Nc1cc2[nH]nc(-c3ccc4nn(C)cc4c3)c2cn1)c1ccc(F)cc1` [Example 63, 1-[(1R)-1-(4-fluorophenyl)ethyl]-3-[3-(2-methyl-2H-indazol-5-yl)-1H-pyrazolo[4,3-c]pyridin-6-yl]urea], the IC50 reads like this: under setting [1], 0.405 nM; under setting [2], 0.2 to 1.7 nM.

Consider `Cn1cc2cc(-c3n[nH]c4cc(NC(=O)NCc5ccc(F)c(Cl)c5)ncc34)ccc2n1` [Example 64, 1-(3-chloro-4-fluorobenzyl)-3-[3-(2-methyl-2H-indazol-5-yl)-1H-pyrazolo[4,3-c]pyridin-6-yl]urea], for which the IC50 is 0.586 nM under setting [1] and 0.2 to 1.7 nM under setting [2].

In the case of `C[C@@H](NC(=O)Nc1cc2[nH]nc(-c3ccc4nn(C)cc4c3)c2cn1)c1ccc(Cl)cc1` [Example 65, 1-[(1R)-1-(4-chlorophenyl)ethyl]-3-[3-(2-methyl-2H-indazol-5-yl)-1H-pyrazolo[4,3-c]pyridin-6-yl]urea], the half-maximal inhibitory concentration (IC50) runs as follows: under setting [1], 0.562 nM; under setting [2], 0.2 to 1.7 nM.

For the compound `C[C@@H](NC(=O)Nc1cc2[nH]nc(-c3ccc(C#N)cc3)c2cn1)c1ccccc1` [Example 66, 1-[3-(4-cyanophenyl)-1H-pyrazolo[4,3-c]pyridin-6-yl]-3-[(1R)-1-phenylethyl]urea], the IC50 is, setting by setting: under setting [1], 1.06 nM; under setting [2], 0.2 to 1.7 nM.

On to `C/C=C/c1n[nH]c2cc(NC(=O)N[C@H](C)c3ccccc3)ncc12` [Example 67, 1-[(1R)-1-phenylethyl]-3-{3-[(1E)-prop-1-en-1-yl]-1H-pyrazolo[4,3-c]pyridin-6-yl}urea], for which the 50% inhibitory concentration (IC50) was 0.428 nM under setting [1] and 0.2 to 1.7 nM under setting [2].

`C[C@@H](NC(=O)Nc1cc2[nH]nc(Br)c2cn1)c1ccc(F)c(Cl)c1` [Example 68, 1-(3-bromo-1H-pyrazolo[4,3-c]pyridin-6-yl)-3-[(1R)-1-(3-chloro-4-fluorophenyl)ethyl]urea]: the IC50 under setting [1] was 106 nM.

Consider `Cc1cc(-c2n[nH]c3cc(NC(=O)N[C@H](C)c4ccc(F)c(Cl)c4)ncc23)ccn1` [Example 69, 1-[(1R)-1-(3-chloro-4-fluorophenyl)ethyl]-3-[3-(2-methylpyridin-4-yl)-1H-pyrazolo[4,3-c]pyridin-6-yl]urea], for which the IC50 under setting [1] amounted to 0.432 nM and the IC50 under setting [2] is 0.2 to 1.7 nM.

Consider `Cc1cc(-c2n[nH]c3cc(NC(=O)NC(C)(C)c4ccc(Cl)cc4)ncc23)ccn1` [Example 70, 1-[1-(4-chlorophenyl)-1-methylethyl]-3-[3-(2-methylpyridin-4-yl)-1H-pyrazolo[4,3-c]pyridin-6-yl]urea], for which the IC50 under setting [1] was 10.2 nM.

Consider `C[C@@H](NC(=O)Nc1cc2[nH]nc(-c3ccc(=O)n(C)c3)c2cn1)c1ccc(F)cc1` [Example 71, 1-[(1R)-1-(4-fluorophenyl)ethyl]-3-[3-(1-methyl-6-oxo-1,6-dihydropyridin-3-yl)-1H-pyrazolo[4,3-c]pyridin-6-yl]urea], for which the IC50 is, setting by setting: under setting [1], 0.159 nM; under setting [2], 0.2 to 1.7 nM.

Consider `C[C@@H](NC(=O)Nc1cc2[nH]nc(-c3cnn(C)c3)c2cn1)c1ccc(F)c(Cl)c1` [Example 72, 1-[(1R)-1-(3-chloro-4-fluorophenyl)ethyl]-3-[3-(1-methyl-1H-pyrazol-4-yl)-1H-pyrazolo[4,3-c]pyridin-6-yl]urea], for which the IC50 reads like this: under setting [1], 0.709 nM; under setting [2], 0.2 to 1.7 nM.

In the case of `C[C@@H](NC(=O)Nc1cc2[nH]nc(-c3ccc(F)cc3)c2cn1)c1ccc(F)c(Cl)c1` [Example 73, 1-[(1R)-1-(3-chloro-4-fluorophenyl)ethyl]-3-[3-(4-fluorophenyl)-1H-pyrazolo[4,3-c]pyridin-6-yl]urea], the IC50 under setting [1] stood at 9.34 nM.

For `C[C@@H](NC(=O)Nc1cc2[nH]nc(-c3cn[nH]c3)c2cn1)c1ccc(F)c(Cl)c1` [Example 74, 1-[(1R)-1-(3-chloro-4-fluorophenyl)ethyl]-3-[3-(1H-pyrazol-4-yl)-1H-pyrazolo[4,3-c]pyridin-6-yl]urea], the IC50 is, setting by setting: under setting [1], 0.603 nM; under setting [2], 0.2 to 1.7 nM.

On to `C[C@@H](NC(=O)Nc1cc2[nH]nc(-c3ccnc(Cl)c3)c2cn1)c1ccc(F)c(Cl)c1` [Example 75, 1-[(1R)-1-(3-chloro-4-fluorophenyl)ethyl]-3-[3-(2-chloropyridin-4-yl)-1H-pyrazolo[4,3-c]pyridin-6-yl]urea], for which the IC50 under setting [1] worked out at 2.64 nM.

For the compound `C[C@@H](NC(=O)Nc1cc2[nH]nc(-c3cccc(Cl)c3)c2cn1)c1ccc(F)c(Cl)c1` [Example 76, 1-[(1R)-1-(3-chloro-4-fluorophenyl)ethyl]-3-[3-(3-chlorophenyl)-1H-pyrazolo[4,3-c]pyridin-6-yl]urea], the IC50 under setting [1] was found to be 56.1 nM.

Turning to `Cc1cc(-c2n[nH]c3cc(NC(=O)NC4(c5ccc(Cl)cc5)CCOCC4)ncc23)ccn1` [Example 77, 1-[4-(4-chlorophenyl)tetrahydro-2H-pyran-4-yl]-3-[3-(2-methylpyridin-4-yl)-1H-pyrazolo[4,3-c]pyridin-6-yl]urea], the half-maximal inhibitory concentration (IC50) under setting [1] was found to be 15.1 nM.

Regarding `Cc1cc(-c2n[nH]c3cc(NC(=O)NC4CCc5ccccc54)ncc23)ccn1` (centres unmarked) [Example 78, 1-(2,3-dihydro-1H-inden-1-yl)-3-[3-(2-methylpyridin-4-yl)-1H-pyrazolo[4,3-c]pyridin-6-yl]urea], under setting [1], the concentration for half-maximal inhibition (IC50) was 5.39 nM.

In the case of `Cc1cc(-c2n[nH]c3c(Br)c(NC(=O)N[C@H](C)c4ccccc4)ncc23)ccn1` [Example 79, 1-[7-bromo-3-(2-methylpyridin-4-yl)-1H-pyrazolo[4,3-c]pyridin-6-yl]-3-[(1R)-1-phenylethyl]urea], the IC50 under setting [1] came to 34.5 nM.

With `C[C@@H](NC(=O)Nc1cc2[nH]nc(-c3ccnc(F)c3)c2cn1)c1ccc(F)c(Cl)c1` [Example 81, 1-[(1R)-1-(3-chloro-4-fluorophenyl)ethyl]-3-[3-(2-fluoropyridin-4-yl)-1H-pyrazolo[4,3-c]pyridin-6-yl]urea], the IC50 under setting [1] was determined as 1.91 nM.

Take `C[C@@H](NC(=O)Nc1cc2[nH]nc(C3CC3)c2cn1)c1ccc(F)c(Cl)c1` [Example 82, 1-[(1R)-1-(3-chloro-4-fluorophenyl)ethyl]-3-(3-cyclopropyl-1H-pyrazolo[4,3-c]pyridin-6-yl)urea]: under setting [1], the IC50 was 10.8 nM.

`C[C@@H](NC(=O)Nc1cc2[nH]nc(-c3ccc(C#N)cc3)c2cn1)c1ccc(F)cc1` [Example 83, 1-[3-(4-cyanophenyl)-1H-pyrazolo[4,3-c]pyridin-6-yl]-3-[(1R)-1-(4-fluorophenyl)ethyl]urea]: the half-inhibitory concentration (IC50) under setting [1] turned out to be 3.28 nM.

With `C[C@@H](NC(=O)Nc1cc2[nH]nc(-c3ccc(C#N)cc3)c2cn1)c1cccc(Cl)c1` [Example 84, 1-[(1R)-1-(3-chlorophenyl)ethyl]-3-[3-(4-cyanophenyl)-1H-pyrazolo[4,3-c]pyridin-6-yl]urea], under setting [1], the IC50 came to 6.11 nM.

Turning to `Cc1cc(-c2n[nH]c3cc(NC(=O)NC4(c5ccc(Cl)cc5)CC4)ncc23)ccn1` [Example 85, 1-[1-(4-chlorophenyl)cyclopropyl]-3-[3-(2-methylpyridin-4-yl)-1H-pyrazolo[4,3-c]pyridin-6-yl]urea], the half-maximal inhibitory concentration (IC50) under setting [1] came out at 29.8 nM.

`Cc1cc(-c2n[nH]c3c(Br)c(NC(=O)N[C@H](C)c4ccc(Cl)cc4)ncc23)ccn1` [Example 86, 1-[7-bromo-3-(2-methylpyridin-4-yl)-1H-pyrazolo[4,3-c]pyridin-6-yl]-3-[(1R)-1-(4-chlorophenyl)ethyl]urea]: the IC50 under setting [1] is 455 nM.

With `Cc1nc2ccc(-c3n[nH]c4cc(NC(=O)N[C@H](C)c5ccccc5)ncc34)cc2s1` [Example 87, 1-[3-(2-methyl-1,3-benzothiazol-6-yl)-1H-pyrazolo[4,3-c]pyridin-6-yl]-3-[(1R)-1-phenylethyl]urea], the IC50 was 0.748 nM under setting [1] and 0.2 to 1.7 nM under setting [2].
